Results reported in ChEMBL document CHEMBL1201862, “PubChem BioAssay data set” (2004).
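Protocol summary: plate cells (96-well), add compound at 5 concentrations, incubate 48 h, interpolate endpoints linearly. GI50 = concentration required for 50% inhibition of growth.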 Calls of active or inactive are those of the source. Rule as the data show it: active = GI50 up to about 1.1 µM and inactive = higher.

Assays:
Assay in all cases: growth of human tumour cells (NCI), 48 h
[1] = test system: A549
[2] = test system: DU-145
[3] = test system: EKVX
[4] = test system: HCC 2998
[5] = test system: HCT-116
[6] = test system: HOP-92
[7] = test system: MDA-MB-231
[8] = test system: MDA-MB-435
[9] = test system: Malme-3M
[10] = test system: NCI-H226
[11] = test system: NCI-H522
[12] = test system: OVCAR-4
[13] = test system: OVCAR-5
[14] = test system: RPMI-8226
[15] = test system: RXF 393
[16] = test system: SF-295
[17] = test system: SK-MEL-28
[18] = test system: UACC-257
[19] = test system: MOLT-4
[20] = test system: UO-31

SMILES	GI50 [1]	GI50 [2]	GI50 [3]	GI50 [4]	GI50 [5]	GI50 [6]	GI50 [7]	GI50 [8]	GI50 [9]	GI50 [10]	GI50 [11]	GI50 [12]	GI50 [13]	GI50 [14]	GI50 [15]	GI50 [16]	GI50 [17]	GI50 [18]	GI50 [19]	GI50 [20]
O=C(O)CCC1(c2ccccc2)NC(=O)NC1=O (stereo not drawn)	> 100 µM (inactive)	> 100 µM (inactive)	> 100 µM (inactive)	> 100 µM (inactive)	> 100 µM (inactive)	> 100 µM (inactive)	> 100 µM (inactive)	> 100 µM (inactive)	> 100 µM (inactive)	> 100 µM (inactive)	> 100 µM (inactive)	> 100 µM (inactive)	> 100 µM (inactive)	> 100 µM (inactive)	> 100 µM (inactive)	> 100 µM (inactive)	> 100 µM (inactive)	> 100 µM (inactive)		
[O-][Cl+3]([O-])([O-])O.c1ccc(C2=NN2c2ccccc2)cc1	7.96 µM (inactive)	5.89 µM (inactive)	92.7 µM (inactive)	6.28 µM (inactive)		> 100 µM (inactive)	> 100 µM (inactive)	2.83 µM (inactive)	29.5 µM (inactive)	14.3 µM (inactive)	35.3 µM (inactive)	> 100 µM (inactive)	> 100 µM (inactive)		> 100 µM (inactive)	> 100 µM (inactive)	> 100 µM (inactive)	59.6 µM (inactive)	3.73 µM (inactive)	15.9 µM (inactive)
CC(C)(C)OC(=O)NC(Cc1ccc(OCc2ccccc2)cn1)C(=O)NCc1ccccc1 (stereo not drawn)	36.6 µM (inactive)	40.5 µM (inactive)	26.2 µM (inactive)	34.2 µM (inactive)	26.5 µM (inactive)	20 µM (inactive)	24.6 µM (inactive)	20.1 µM (inactive)	22.8 µM (inactive)		17.1 µM (inactive)		38.6 µM (inactive)	16.3 µM (inactive)	27.9 µM (inactive)	21.2 µM (inactive)	31.3 µM (inactive)	16.9 µM (inactive)	13.2 µM (inactive)	34.7 µM (inactive)
[O-]c1c[n+](CC[n+]2cc([O-])on2)no1	> 100 µM (inactive)	> 100 µM (inactive)	> 100 µM (inactive)	> 100 µM (inactive)	> 100 µM (inactive)	> 100 µM (inactive)	> 100 µM (inactive)	> 100 µM (inactive)	> 100 µM (inactive)		> 100 µM (inactive)	> 100 µM (inactive)	> 100 µM (inactive)	> 100 µM (inactive)	> 100 µM (inactive)	> 100 µM (inactive)	> 100 µM (inactive)	> 100 µM (inactive)	> 100 µM (inactive)	> 100 µM (inactive)
O=Cc1c2ccccc2n2ccc3c4ccccc4[nH]c3c12	> 10 µM (inactive)	> 10 µM (inactive)	3.57 µM (inactive)	> 10 µM (inactive)	> 10 µM (inactive)	> 10 µM (inactive)	> 10 µM (inactive)	> 10 µM (inactive)	> 10 µM (inactive)	> 10 µM (inactive)	> 10 µM (inactive)	> 10 µM (inactive)	> 10 µM (inactive)	> 10 µM (inactive)	> 10 µM (inactive)	> 10 µM (inactive)		> 10 µM (inactive)	> 10 µM (inactive)	> 10 µM (inactive)
O[C@@H]1CCC[C@@H]2NC[C@@H](c3ccc4c(c3)OCO4)[C@H]12	> 100 µM (inactive)	> 100 µM (inactive)	> 100 µM (inactive)	> 100 µM (inactive)		> 100 µM (inactive)	> 100 µM (inactive)	> 100 µM (inactive)	> 100 µM (inactive)	> 100 µM (inactive)	> 100 µM (inactive)	> 100 µM (inactive)	> 100 µM (inactive)	> 100 µM (inactive)	> 100 µM (inactive)	> 100 µM (inactive)	> 100 µM (inactive)	> 100 µM (inactive)	> 100 µM (inactive)	> 100 µM (inactive)
COc1ccc(N2C(=O)C3ON(C(C(N)=O)c4ccccc4)C(c4cc5ccccc5c5ccccc45)C3C2=O)cc1 (stereo not drawn)	> 50 µM (inactive)	> 50 µM (inactive)	24.5 µM (inactive)		18.2 µM (inactive)	47.1 µM (inactive)	> 50 µM (inactive)	18.4 µM (inactive)	> 50 µM (inactive)	26.3 µM (inactive)	29.5 µM (inactive)	25.9 µM (inactive)	> 50 µM (inactive)		21.8 µM (inactive)	> 50 µM (inactive)	> 50 µM (inactive)	22.7 µM (inactive)	14.5 µM (inactive)	16.7 µM (inactive)
CO[C@H]1O[C@@H]2CO[C@@H](c3ccccc3)O[C@H]2[C@@H]2C/C=C\CCC[C@@]12O	26.9 µM (inactive)	20.7 µM (inactive)	19.4 µM (inactive)	12.7 µM (inactive)	16.1 µM (inactive)	20 µM (inactive)	29 µM (inactive)	24 µM (inactive)		20.7 µM (inactive)	20.1 µM (inactive)	32.8 µM (inactive)	21.7 µM (inactive)	17.2 µM (inactive)	17.2 µM (inactive)	19.7 µM (inactive)	30.1 µM (inactive)	18.5 µM (inactive)	17 µM (inactive)	30.8 µM (inactive)
CCN(CC)CCCNc1nncc2c(C)c3[nH]c4ccccc4c3cc12	0.67 µM (active)	0.706 µM (active)	1.37 µM (inactive)	0.802 µM (active)		0.847 µM (active)	0.374 µM (active)	1.25 µM (inactive)	1.04 µM (active)	0.255 µM (active)	0.16 µM (active)	0.514 µM (active)	1.71 µM (inactive)		1.63 µM (inactive)	2.74 µM (inactive)	1.24 µM (inactive)	1.24 µM (inactive)	0.0241 µM (active)	5.79 µM (inactive)
CC[C@]1(Cc2ccc(OC)c(OC)c2)C=[N+]([O-])O[C@H](OCc2ccccc2)[C@@H]1OC(C)=O	36.2 µM (inactive)	23.6 µM (inactive)	16.5 µM (inactive)	45.7 µM (inactive)		23.9 µM (inactive)	36.4 µM (inactive)	38.4 µM (inactive)	20.7 µM (inactive)	19.3 µM (inactive)	12.4 µM (inactive)	24.1 µM (inactive)	59.7 µM (inactive)	18.2 µM (inactive)	18.2 µM (inactive)	53.6 µM (inactive)	25.8 µM (inactive)	21.3 µM (inactive)	6.34 µM (inactive)	32.1 µM (inactive)
CCOC(=O)C1=C(c2ccccc2)C12N(Cc1ccccc1)C(=O)C2(c1ccccc1)c1ccccc1 (stereo not drawn)		75 µM (inactive)	38.8 µM (inactive)	28.1 µM (inactive)	36.4 µM (inactive)	20 µM (inactive)	29.9 µM (inactive)	34.8 µM (inactive)	93.8 µM (inactive)	26.3 µM (inactive)	32.8 µM (inactive)		59.8 µM (inactive)	3.16 µM (inactive)	28.3 µM (inactive)	41.5 µM (inactive)	74.3 µM (inactive)	34.7 µM (inactive)	38.8 µM (inactive)	28.8 µM (inactive)
COC(=O)C1(CCCCCBr)CCCCCCCCCCC1=O (stereo not drawn)	31.3 µM (inactive)	88.5 µM (inactive)	78.9 µM (inactive)	41.1 µM (inactive)	26.4 µM (inactive)	58.7 µM (inactive)	36.6 µM (inactive)	37.6 µM (inactive)	19.7 µM (inactive)	23.6 µM (inactive)	20.5 µM (inactive)	19.8 µM (inactive)	37.3 µM (inactive)		23.4 µM (inactive)	35.6 µM (inactive)	35.3 µM (inactive)	23.7 µM (inactive)	17.9 µM (inactive)	16.7 µM (inactive)
COC(=N)c1ncn(Cc2ccccc2)c1N	> 100 µM (inactive)	> 100 µM (inactive)	> 100 µM (inactive)	> 100 µM (inactive)	> 100 µM (inactive)	> 100 µM (inactive)	> 100 µM (inactive)	> 100 µM (inactive)	> 100 µM (inactive)	> 100 µM (inactive)	> 100 µM (inactive)	> 100 µM (inactive)	> 100 µM (inactive)	> 100 µM (inactive)	> 100 µM (inactive)	> 100 µM (inactive)	> 100 µM (inactive)	> 100 µM (inactive)		
CC1=CC(=O)N(n2c(C)n[nH]c2=O)C1=O	> 100 µM (inactive)	> 100 µM (inactive)	> 100 µM (inactive)	> 100 µM (inactive)	> 100 µM (inactive)	> 100 µM (inactive)	> 100 µM (inactive)	> 100 µM (inactive)	> 100 µM (inactive)	> 100 µM (inactive)	> 100 µM (inactive)	> 100 µM (inactive)	> 100 µM (inactive)	> 100 µM (inactive)	> 100 µM (inactive)	> 100 µM (inactive)		> 100 µM (inactive)	> 100 µM (inactive)	> 100 µM (inactive)
Br[Se]c1ccccn1	21.6 µM (inactive)	16.7 µM (inactive)	17.6 µM (inactive)	21.1 µM (inactive)	18.3 µM (inactive)	18.5 µM (inactive)	17.7 µM (inactive)	17.3 µM (inactive)	17.4 µM (inactive)	17.5 µM (inactive)	16.4 µM (inactive)	16.9 µM (inactive)	20.2 µM (inactive)	23.8 µM (inactive)	17.2 µM (inactive)	4.5 µM (inactive)	19.6 µM (inactive)	17.8 µM (inactive)		17.1 µM (inactive)
